Test results reported in ChEMBL document CHEMBL5303573, “Mapping human microbiome drug metabolism by gut bacteria and their genes” (Nature, 2019).

What was measured:
[1] = The drug is tested on Bacteroides caccae strain: ATCC43185 for biotransformation. The drug concentrations were measured before and after a 12-h incubation by liquid-chromatography-coupled mass spectrometry (LC–MS); details: 2 µM
[2] = The drug is tested on Clostridium sporogenes strain: ATCC15579 for biotransformation. The drug concentrations were measured before and after a 12-h incubation by liquid-chromatography-coupled mass spectrometry (LC–MS); details: 2 µM
[3] = The drug is tested on Providencia rettgeri strain: DSM1131 for biotransformation. The drug concentrations were measured before and after a 12-h incubation by liquid-chromatography-coupled mass spectrometry (LC–MS); type: ADME; set-up: dose 2 uM, timepoint 0 vs 12 hours; details: 2 µM
[4] = The drug is tested on Ruminococcus gnavus strain: ATCC29149 for biotransformation. The drug concentrations were measured before and after a 12-h incubation by liquid-chromatography-coupled mass spectrometry (LC–MS); details: mediterraneibacter gnavus, 2 µM
[5] = The drug is tested on Anaerococcus hydrogenalis strain: DSM7454 for biotransformation. The drug concentrations were measured before and after a 12-h incubation by liquid-chromatography-coupled mass spectrometry (LC–MS); details: 2 µM
[6] = The drug is tested on Eubacterium rectale strain: ATCC33656 for biotransformation. The drug concentrations were measured before and after a 12-h incubation by liquid-chromatography-coupled mass spectrometry (LC–MS); details: agathobacter rectalis, 2 µM
[7] = The drug is tested on Bacteroides finegoldii strain: DSM17565 for biotransformation. The drug concentrations were measured before and after a 12-h incubation by liquid-chromatography-coupled mass spectrometry (LC–MS); details: 2 µM
[8] = anaerostipes sp., 12 h, 2 µM
Description: The drug is tested on Anaerostipes sp. strain: fecal isolate for biotransformation. The drug concentrations were measured before and after a 12-h incubation by liquid-chromatography-coupled mass spectrometry (LC–MS)

[9] = enterocloster bolteae, 12 h, 2 µM
Description: The drug is tested on Clostridium bolteae strain: ATCCBAA-613 for biotransformation. The drug concentrations were measured before and after a 12-h incubation by liquid-chromatography-coupled mass spectrometry (LC–MS)

[10] = bacteroides thetaiotaomicron, 12 h, 2 µM
Description: The drug is tested on Bacteroides thetaiotaomicron strain: 3731 for biotransformation. The drug concentrations were measured before and after a 12-h incubation by liquid-chromatography-coupled mass spectrometry (LC–MS)

[11] = The drug is tested on Coprococcus comes strain: ATCC27758 for biotransformation. The drug concentrations were measured before and after a 12-h incubation by liquid-chromatography-coupled mass spectrometry (LC–MS); type: ADME; set-up: dose 2 uM, timepoint 0 vs 12 hours; details: 2 µM
[12] = The drug is tested on Escherichia coli strain: BW25113 for biotransformation. The drug concentrations were measured before and after a 12-h incubation by liquid-chromatography-coupled mass spectrometry (LC–MS); details: 2 µM
[13] = limosilactobacillus reuteri cf48-3a, 12 h, 2 µM
Description: The drug is tested on Lactobacillus reuteri CF48-3A strain: BEI HM-102 for biotransformation. The drug concentrations were measured before and after a 12-h incubation by liquid-chromatography-coupled mass spectrometry (LC–MS)

[14] = The drug is tested on Subdoligranulum variabile strain: DSM15176 for biotransformation. The drug concentrations were measured before and after a 12-h incubation by liquid-chromatography-coupled mass spectrometry (LC–MS); details: 2 µM
[15] = parabacteroides johnsonii, 12 h, 2 µM
Description: The drug is tested on Parabacteroides johnsonii strain: DSM18315 for biotransformation. The drug concentrations were measured before and after a 12-h incubation by liquid-chromatography-coupled mass spectrometry (LC–MS)

[16] = The drug is tested on Bacteroides ovatus strain: ATCC8483 for biotransformation. The drug concentrations were measured before and after a 12-h incubation by liquid-chromatography-coupled mass spectrometry (LC–MS); details: 2 µM
[17] = The drug is tested on Eubacterium ventriosum strain: ATCC27560 for biotransformation. The drug concentrations were measured before and after a 12-h incubation by liquid-chromatography-coupled mass spectrometry (LC–MS); type: ADME; set-up: dose 2 uM, timepoint 0 vs 12 hours; details: 2 µM
[18] = The drug is tested on Bifidobacterium longum subsp. Infantis strain: CCUG52486 for biotransformation. The drug concentrations were measured before and after a 12-h incubation by liquid-chromatography-coupled mass spectrometry (LC–MS); details: 2 µM
[19] = bacteroides intestinalis, 12 h, 2 µM
Description: The drug is tested on Bacteroides intestinalis strain: DSM17393 for biotransformation. The drug concentrations were measured before and after a 12-h incubation by liquid-chromatography-coupled mass spectrometry (LC–MS)

[20] = akkermansia muciniphila, 12 h, 2 µM
Description: The drug is tested on Akkermansia muciniphila strain: ATCC BAA-835 for biotransformation. The drug concentrations were measured before and after a 12-h incubation by liquid-chromatography-coupled mass spectrometry (LC–MS)

[21] = The drug is tested on Bifidobacterium ruminantium strain: fecal isolate for biotransformation. The drug concentrations were measured before and after a 12-h incubation by liquid-chromatography-coupled mass spectrometry (LC–MS); details: 2 µM
[22] = The drug is tested on Providencia stuartii strain: ATCC25827 for biotransformation. The drug concentrations were measured before and after a 12-h incubation by liquid-chromatography-coupled mass spectrometry (LC–MS); details: 2 µM
[23] = The drug is tested on Bacteroides sp. WH2 strain: WH2 for biotransformation. The drug concentrations were measured before and after a 12-h incubation by liquid-chromatography-coupled mass spectrometry (LC–MS); details: bacteroides sp. wh2, 12 h, 2 µM
[24] = The drug is tested on Eubacterium hallii strain: DSM3353 for biotransformation. The drug concentrations were measured before and after a 12-h incubation by liquid-chromatography-coupled mass spectrometry (LC–MS); details: anaerobutyricum hallii, 2 µM
[25] = The drug is tested on Ruminococcus lactaris strain: ATCC29176 for biotransformation. The drug concentrations were measured before and after a 12-h incubation by liquid-chromatography-coupled mass spectrometry (LC–MS); details: 2 µM
[26] = The drug is tested on Dorea formicigenerans strain: ATCC27755 for biotransformation. The drug concentrations were measured before and after a 12-h incubation by liquid-chromatography-coupled mass spectrometry (LC–MS); details: 2 µM
[27] = The drug is tested on Anaerotruncus colihominis strain: DSM17241 for biotransformation. The drug concentrations were measured before and after a 12-h incubation by liquid-chromatography-coupled mass spectrometry (LC–MS); details: 2 µM
[28] = The drug is tested on Ruminococcus torques strain: ATCC27756 for biotransformation. The drug concentrations were measured before and after a 12-h incubation by liquid-chromatography-coupled mass spectrometry (LC–MS); type: ADME; set-up: dose 2 uM, timepoint 0 vs 12 hours; details: 2 µM
[29] = The drug is tested on Odoribacter splanchnicus strain: fecal isolate for biotransformation. The drug concentrations were measured before and after a 12-h incubation by liquid-chromatography-coupled mass spectrometry (LC–MS); details: 2 µM
[30] = The drug is tested on Enterobacter cancerogenus strain: ATCC35316 for biotransformation. The drug concentrations were measured before and after a 12-h incubation by liquid-chromatography-coupled mass spectrometry (LC–MS); details: 2 µM
[31] = The drug is tested on Clostridium symbiosum strain: ATCC14940 for biotransformation. The drug concentrations were measured before and after a 12-h incubation by liquid-chromatography-coupled mass spectrometry (LC–MS); details: 2 µM
[32] = The drug is tested on Collinsella intestinalis strain: DSM13280 for biotransformation. The drug concentrations were measured before and after a 12-h incubation by liquid-chromatography-coupled mass spectrometry (LC–MS); details: 2 µM

Bacterial Biotransformation [1]: Compound NOT metabolized | Bacterial Biotransformation [2]: Compound NOT metabolized | Bacterial Biotransformation [3]: Compound NOT metabolized | Bacterial Biotransformation [4]: Compound NOT metabolized | Bacterial Biotransformation [5]: Compound NOT metabolized | Bacterial Biotransformation [6]: Compound metabolized | Bacterial Biotransformation [7]: Compound NOT metabolized | Bacterial Biotransformation [8]: Compound NOT metabolized | Bacterial Biotransformation [9]: Compound NOT metabolized | Bacterial Biotransformation [10]: Compound NOT metabolized | Bacterial Biotransformation [11]: Compound NOT metabolized | Bacterial Biotransformation [12]: Compound metabolized | Bacterial Biotransformation [13]: Compound metabolized | Bacterial Biotransformation [14]: Compound NOT metabolized | Bacterial Biotransformation [15]: Compound NOT metabolized | Bacterial Biotransformation [16]: Compound NOT metabolized | Bacterial Biotransformation [17]: Compound NOT metabolized | Bacterial Biotransformation [18]: Compound metabolized | Bacterial Biotransformation [19]: Compound NOT metabolized | Bacterial Biotransformation [20]: Compound NOT metabolized | Bacterial Biotransformation [21]: Compound NOT metabolized | Bacterial Biotransformation [22]: Compound NOT metabolized | Bacterial Biotransformation [23]: Compound NOT metabolized | Bacterial Biotransformation [24]: Compound NOT metabolized | Bacterial Biotransformation [25]: Compound NOT metabolized | Bacterial Biotransformation [26]: Compound NOT metabolized | Bacterial Biotransformation [27]: Compound NOT metabolized | Bacterial Biotransformation [28]: Compound NOT metabolized | Bacterial Biotransformation [29]: Compound metabolized | Bacterial Biotransformation [30]: Compound metabolized | Bacterial Biotransformation [31]: Compound NOT metabolized | Bacterial Biotransformation [32]: Compound NOT metabolized
SMILES: CCCCCOC(=O)Nc1nc(=O)n([C@@H]2O[C@H](C)[C@@H](O)[C@H]2O)cc1F [CAPECITABINE]
